Reference: patent US20140094424A1, “MICROBICIDAL COMPOSITIONS AND METHODS OF PRODUCTION USE THEREOF” (priority 2011, published 2014)

Experiments:
[1] = test system: Penicillium notatum-KMO (R); test: MBC (minimum bactericidal concentration) test in Wash NEXT reagent; type: cell-based; set-up: key to MBC test growth score: number = actual colony count; + full mat, − no growth
Description: The stock organisms were thawed and subbed prior to beginning the MBC test. Molds were subbed to SDA plates one week before, and the bacteria were subbed to TAT agar plates 24 hours prior to the start of the test. All plates were incubated at 32 degrees C.
For the molds, each organism was inoculated into 40 ml sterile saline in a centrifuge tube to create a density of MacFarland #5. Two serial dilutions of 1:100 were then made, resulting in 10^−2 and 10^−4 concentrations. Each dilution was vortexed before it was sampled, and sterile Eppendorf pipette tips were used to make each transfer. The 10^−4 dilution was spiral plated to yield the initial inoculum concentration.
MBC trays were set up with the prepared test reagent. Using a Matrix pipettor, 100 μl aliquots of reagent were distributed into the wells, diluting the amount of preservative from 100% to 10% increments, using unpreserved reagent as the diluent. In one row, 100% non-preserved reagent acted as a positive control and served as a benchmark for a full mat of growth. In well #12H, 100 μl unpreserved reagent was pipetted, and this well was not inoculated with organisms, as it served as the negative control. Once all of the trays were prepared, the prepared bacteria/mold suspensions were poured into the MBC inoculating trays. These were placed onto the reagent trays, and 0.01 ml inoculum was introduced into the 100 μl of reagent in each well.
This was done by dipping a sterile cotton swab into each well, and absorbing all of the liquid in the well. The swab was rolled onto a TAT agar plate ensuring that the entire swab touches the agar. Plates ware incubated at 32 degrees C. for 48 hours to 7 days, depending on the organism. Observations for growth were performed by a scoring matrix using + for a full mat, +/− for some growth, a numerical value for an actual colony count, and—for no growth.
Below are tables that contain the data obtained in Example 1. The MBC test is scored by (+) indicating a full grown mat of organisms, equivalent to the organisms in the unpreserved reagent. (+/−) indicates there is some kill evident disturbing that mat or bringing the quantities down to an almost countable level. An actual number is the actual number of colonies growing at that concentration of preservative. (−) indicates no growth found. The MBC trays were stored at room temperature for the entire test.
The materials and methods and analysis of the MBC test were the same as in Example 1.

[2] = test system: Pseudomonas fluorescens (D); test: as above; type: cell-based

gentamicin
MBC test growth score ([1]; 10% preservative, 8 hour): + | MBC test growth score ([1]; 10% preservative, 24 hour): + | MBC test growth score ([1]; 10% preservative, 48 hour): +/− | MBC test growth score ([1]; 10% preservative, 72 hour): +/− | MBC test growth score ([1]; 10% preservative, 7 day): +/− | MBC test growth score ([1]; 10% preservative, 14 day): +/− | MBC test growth score ([1]; 20% preservative, 8 hour): + | MBC test growth score ([1]; 20% preservative, 24 hour): + | MBC test growth score ([1]; 20% preservative, 48 hour): +/− | MBC test growth score ([1]; 20% preservative, 72 hour): +/− | MBC test growth score ([1]; 20% preservative, 7 day): +/− | MBC test growth score ([1]; 20% preservative, 14 day): +/− | MBC test growth score ([1]; 30% preservative, 8 hour): + | MBC test growth score ([1]; 30% preservative, 24 hour): + | MBC test growth score ([1]; 30% preservative, 48 hour): +/− | MBC test growth score ([1]; 30% preservative, 72 hour): +/− | MBC test growth score ([1]; 30% preservative, 7 day): +/− | MBC test growth score ([1]; 30% preservative, 14 day): +/− | MBC test growth score ([1]; 40% preservative, 8 hour): + | MBC test growth score ([1]; 40% preservative, 24 hour): + | MBC test growth score ([1]; 40% preservative, 48 hour): +/− | MBC test growth score ([1]; 40% preservative, 72 hour): +/− | MBC test growth score ([1]; 40% preservative, 7 day): +/− | MBC test growth score ([1]; 40% preservative, 14 day): 28 | MBC test growth score ([1]; 50% preservative, 8 hour): + | MBC test growth score ([1]; 50% preservative, 24 hour): + | MBC test growth score ([1]; 50% preservative, 48 hour): +/− | MBC test growth score ([1]; 50% preservative, 72 hour): +/− | MBC test growth score ([1]; 50% preservative, 7 day): +/− | MBC test growth score ([1]; 50% preservative, 14 day): 25 | MBC test growth score ([1]; 60% preservative, 8 hour): + | MBC test growth score ([1]; 60% preservative, 24 hour): + | MBC test growth score ([1]; 60% preservative, 48 hour): +/− | MBC test growth score ([1]; 60% preservative, 72 hour): +/− | MBC test growth score ([1]; 60% preservative, 7 day): +/− | MBC test growth score ([1]; 60% preservative, 14 day): 23 | MBC test growth score ([1]; 70% preservative, 8 hour): + | MBC test growth score ([1]; 70% preservative, 24 hour): + | MBC test growth score ([1]; 70% preservative, 48 hour): +/− | MBC test growth score ([1]; 70% preservative, 72 hour): +/− | MBC test growth score ([1]; 70% preservative, 7 day): 23 | MBC test growth score ([1]; 70% preservative, 14 day): 18 | MBC test growth score ([1]; 80% preservative, 8 hour): + | MBC test growth score ([1]; 80% preservative, 24 hour): + | MBC test growth score ([1]; 80% preservative, 48 hour): +/− | MBC test growth score ([1]; 80% preservative, 72 hour): +/− | MBC test growth score ([1]; 80% preservative, 7 day): 16 | MBC test growth score ([1]; 80% preservative, 14 day): 12 | MBC test growth score ([1]; 90% preservative, 8 hour): + | MBC test growth score ([1]; 90% preservative, 24 hour): + | MBC test growth score ([1]; 90% preservative, 48 hour): +/− | MBC test growth score ([1]; 90% preservative, 72 hour): +/− | MBC test growth score ([1]; 90% preservative, 7 day): 11 | MBC test growth score ([1]; 90% preservative, 14 day): 9 | MBC test growth score ([1]; 100% preservative, 8 hour): + | MBC test growth score ([1]; 100% preservative, 24 hour): + | MBC test growth score ([1]; 100% preservative, 48 hour): +/− | MBC test growth score ([1]; 100% preservative, 72 hour): +/− | MBC test growth score ([1]; 100% preservative, 7 day): 7 | MBC test growth score ([1]; 100% preservative, 14 day): 6 | MBC test growth score ([2]; 10% preservative, 8 hour): + | MBC test growth score ([2]; 10% preservative, 24 hour): + | MBC test growth score ([2]; 10% preservative, 48 hour): +/− | MBC test growth score ([2]; 10% preservative, 72 hour): 15 | MBC test growth score ([2]; 20% preservative, 8 hour): + | MBC test growth score ([2]; 20% preservative, 24 hour): + | MBC test growth score ([2]; 20% preservative, 48 hour): +/− | MBC test growth score ([2]; 20% preservative, 72 hour): 12 | MBC test growth score ([2]; 30% preservative, 8 hour): + | MBC test growth score ([2]; 30% preservative, 24 hour): +/− | MBC test growth score ([2]; 30% preservative, 48 hour): +/− | MBC test growth score ([2]; 30% preservative, 72 hour): − | MBC test growth score ([2]; 40% preservative, 8 hour): + | MBC test growth score ([2]; 40% preservative, 24 hour): +/− | MBC test growth score ([2]; 40% preservative, 48 hour): +/− | MBC test growth score ([2]; 40% preservative, 72 hour): − | MBC test growth score ([2]; 50% preservative, 8 hour): +/− | MBC test growth score ([2]; 50% preservative, 24 hour): 14 | MBC test growth score ([2]; 50% preservative, 48 hour): +/− | MBC test growth score ([2]; 50% preservative, 72 hour): − | MBC test growth score ([2]; 60% preservative, 8 hour): +/− | MBC test growth score ([2]; 60% preservative, 24 hour): 13 | MBC test growth score ([2]; 60% preservative, 48 hour): +/− | MBC test growth score ([2]; 60% preservative, 72 hour): − | MBC test growth score ([2]; 70% preservative, 8 hour): +/− | MBC test growth score ([2]; 70% preservative, 24 hour): 5 | MBC test growth score ([2]; 70% preservative, 48 hour): − | MBC test growth score ([2]; 70% preservative, 72 hour): − | MBC test growth score ([2]; 80% preservative, 8 hour): +/− | MBC test growth score ([2]; 80% preservative, 24 hour): 5 | MBC test growth score ([2]; 80% preservative, 48 hour): − | MBC test growth score ([2]; 80% preservative, 72 hour): − | MBC test growth score ([2]; 90% preservative, 8 hour): +/− | MBC test growth score ([2]; 90% preservative, 24 hour): 1 | MBC test growth score ([2]; 90% preservative, 48 hour): − | MBC test growth score ([2]; 90% preservative, 72 hour): − | MBC test growth score ([2]; 100% preservative, 8 hour): +/− | MBC test growth score ([2]; 100% preservative, 24 hour): − | MBC test growth score ([2]; 100% preservative, 48 hour): − | MBC test growth score ([2]; 100% preservative, 72 hour): −
